Data published in ChEMBL document CHEMBL1145549, “Constrained NBMPR analogue synthesis, pharmacophore mapping and 3D-QSAR modeling of equilibrative nucleoside transporter 1 (ENT1) inhibitory activity” (Bioorg Med Chem, 2008).

The compounds below were run against T1, Equilibrative nucleoside transporter 1 (Homo sapiens, UniProt Q99808) (assay: Binding affinity to ENT1 transporter).
T1 sequence (Q99808 whole entry): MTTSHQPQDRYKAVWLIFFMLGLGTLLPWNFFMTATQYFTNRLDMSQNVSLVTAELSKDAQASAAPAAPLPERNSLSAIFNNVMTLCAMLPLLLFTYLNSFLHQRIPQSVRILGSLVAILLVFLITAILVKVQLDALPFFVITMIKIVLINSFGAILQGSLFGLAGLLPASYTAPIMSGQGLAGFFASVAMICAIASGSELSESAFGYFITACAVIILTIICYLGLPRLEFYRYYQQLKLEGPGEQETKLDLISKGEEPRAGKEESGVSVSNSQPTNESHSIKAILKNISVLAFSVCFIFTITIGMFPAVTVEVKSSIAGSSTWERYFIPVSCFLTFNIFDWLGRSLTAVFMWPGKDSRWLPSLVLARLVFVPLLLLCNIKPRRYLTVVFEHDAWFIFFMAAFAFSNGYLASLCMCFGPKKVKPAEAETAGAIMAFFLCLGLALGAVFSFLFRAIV

SMILES | IC50 [µM]
OC[C@H]1O[C@@H](n2cnc3c(NCc4ccccc4)ncnc32)[C@H](O)[C@@H]1O [N6-BENZYLADENOSINE] | 10.7
O=[N+]([O-])c1ccc2c(c1)CN(c1ncnc3c1ncn3[C@@H]1O[C@H](CO)[C@@H](O)[C@H]1O)CC2 | 0.0055
Cc1cc(CNc2ncnc3c2ncn3[C@@H]2O[C@H](CO)[C@@H](O)[C@H]2O)ccc1[N+](=O)[O-] | 0.0871
OC[C@H]1O[C@@H](n2cnc3c(CSc4ccc(Br)cc4)ncnc32)[C@H](O)[C@@H]1O | 0.178
Nc1nc(SCc2ccccc2[N+](=O)[O-])c2ncn([C@@H]3O[C@H](CO)[C@@H](O)[C@H]3O)c2n1 | 4.57
C[C@H]1O[C@@H](n2cnc3c(NCc4ccc([N+](=O)[O-])cc4)ncnc32)[C@H](O)[C@@H]1O | 0.0219
OC[C@H]1O[C@@H](n2cnc3c(SCCCc4ccccc4)ncnc32)[C@H](O)[C@@H]1O | 1.35
CC(=O)c1ccccc1Sc1nc(N)nc2c1ncn2[C@@H]1O[C@H](CO)[C@@H](O)[C@H]1O | 447
Cc1ccc(CNc2ncnc3c2ncn3[C@@H]2O[C@H](CO)[C@@H](O)[C@H]2O)cc1[N+](=O)[O-] | 1.17
CCCCn1cnc2c(SCc3ccccn3)nc(N)nc21 | 52.5
CC(C)Nc1ncnc2c1ncn2[C@@H]1O[C@H](CO)[C@@H](O)[C@H]1O | 257
OC[C@H]1O[C@@H](n2cnc3c(OCc4ccccc4)ncnc32)[C@H](O)[C@@H]1O | 2.09
O=[N+]([O-])c1ccc(CNc2ncnc3c2ncn3[C@@H]2O[C@H](CO)[C@@H](O)[C@H]2O)cc1 | 0.0275
OC[C@H]1O[C@@H](n2cnc3c(SCc4ccccc4)ncnc32)[C@H](O)[C@@H]1O [6-BENZYLTHIOINOSINE] | 1.7
OC[C@H]1O[C@@H](n2cnc3c(CSc4cccc(F)c4)ncnc32)[C@H](O)[C@@H]1O | 0.2
Cn1cnc([N+](=O)[O-])c1Sc1nc(N)nc2c1ncn2[C@@H]1O[C@H](CO)[C@@H](O)[C@H]1O | 575
Nc1nc(SCc2ccccc2)c2ncn([C@@H]3O[C@H](CO)[C@@H](O)[C@H]3O)c2n1 | 5.25
Nc1nc(SCc2cccc(Br)c2)c2ncn([C@@H]3O[C@H](CO)[C@@H](O)[C@H]3O)c2n1 | 2.88
CN(Cc1ccc([N+](=O)[O-])cc1)c1ncnc2c1ncn2[C@@H]1O[C@H](CO)[C@@H](O)[C@H]1O | 0.309
OC[C@H]1O[C@@H](n2cnc3c(NCc4ccco4)ncnc32)[C@H](O)[C@@H]1O [KINETIN RIBOSIDE] | 36.3
Cc1c(CNc2ncnc3c2ncn3[C@@H]2O[C@H](CO)[C@@H](O)[C@H]2O)cccc1[N+](=O)[O-] | 0.427

SMILES | IC50 [µM]
Cc1ccc([N+](=O)[O-])c(CNc2ncnc3c2ncn3[C@@H]2O[C@H](CO)[C@@H](O)[C@H]2O)c1 | 1.29
OC[C@H]1O[C@@H](n2cnc3c(CSc4cccc(Cl)c4)ncnc32)[C@H](O)[C@@H]1O | 0.282
Cc1ccccc1CSc1ncnc2c1ncn2[C@@H]1O[C@H](CO)[C@@H](O)[C@H]1O | 6.31
OC[C@H]1O[C@@H](n2cnc3c(CSc4ccc(Cl)c(Cl)c4)ncnc32)[C@H](O)[C@@H]1O | 0.224
O=[N+]([O-])c1ccc2c(c1)CCN(c1ncnc3c1ncn3[C@@H]1O[C@H](CO)[C@@H](O)[C@H]1O)C2 | 0.182
OC[C@H]1O[C@@H](n2cnc3c(CSc4cccc(I)c4)ncnc32)[C@H](O)[C@@H]1O | 0.245
CCCCn1cnc2c(SC(C)C)nc(N)nc21 | 120
Cc1cc(C)c(SCc2ncnc3c2ncn3[C@@H]2O[C@H](CO)[C@@H](O)[C@H]2O)c(C)c1 | 33.1
O=[N+]([O-])c1cc(CNc2ncnc3c2ncn3[C@@H]2O[C@H](CO)[C@@H](O)[C@H]2O)ccc1Cl | 0.708
Nc1nc(SCc2ccc(F)cc2)c2ncn([C@@H]3O[C@H](CO)[C@@H](O)[C@H]3O)c2n1 | 1.15
OC[C@H]1O[C@@H](n2ccc3c(N4CCCCC4)ncnc32)[C@H](O)[C@@H]1O | 195
C=CCSc1ncnc2c1ncn2[C@@H]1O[C@H](CO)[C@@H](O)[C@H]1O | 13.8
CC(C)(C)c1ccc(SCc2ncnc3c2ncn3[C@@H]2O[C@H](CO)[C@@H](O)[C@H]2O)cc1 | 331
OC[C@H]1O[C@@H](n2cnc3c(CSc4ccc(OC(F)(F)F)cc4)ncnc32)[C@H](O)[C@@H]1O | 0.123
CCSc1ncnc2c1ncn2[C@@H]1O[C@H](CO)[C@@H](O)[C@H]1O | 57.5
CC(C)CSc1nc(N)nc2c1ncn2[C@@H]1O[C@H](CO)[C@@H](O)[C@H]1O | 8.71
Nc1ncnc2c1c(I)cn2[C@@H]1O[C@H](CO)[C@@H](O)[C@H]1O [IODOTUBERCIDIN] | 229
Cc1ccc2ccccc2c1CSc1ncnc2c1ncn2[C@@H]1O[C@H](CO)[C@@H](O)[C@H]1O | 115
O=[N+]([O-])c1ccc(CNc2ncnc3c2ncn3[C@@H]2O[C@H](CO)[C@@H](O)[C@H]2O)c(Cl)c1 | 0.347
OC[C@H]1O[C@@H](n2cc(I)c3c(Cl)ncnc32)[C@H](O)[C@@H]1O | 77.6
CCCC(C)n1cnc2c(SCc3ccccn3)nc(N)nc21 (configuration not stated) | 41.7

SMILES | IC50 [µM]
CC(C)Sc1nc(N)nc2c1ncn2[C@@H]1O[C@H](CO)[C@@H](O)[C@H]1O | 191
O=[N+]([O-])c1ccc(O)c(CSc2ncnc3c2ncn3[C@@H]2O[C@H](CO)[C@@H](O)[C@H]2O)c1 | 0.0331
CC(C)(Sc1ncnc2c1ncn2[C@@H]1O[C@H](CO)[C@@H](O)[C@H]1O)c1ccccc1 | 21.4
Nc1nc(SCc2cc([N+](=O)[O-])ccc2O)c2ncn([C@@H]3O[C@H](CO)[C@@H](O)[C@H]3O)c2n1 | 0.00275
Nc1nc(SCCc2ccccc2)c2ncn([C@@H]3O[C@H](CO)[C@@H](O)[C@H]3O)c2n1 | 16.2
O=[N+]([O-])c1cccc(SCc2ncnc3c2ncn3[C@@H]2O[C@H](CO)[C@@H](O)[C@H]2O)c1 | 0.00479
O=[N+]([O-])c1ccc(CNc2ncnc3c2ncn3[C@@H]2O[C@H](CO)[C@@H](O)[C@@H]2O)cc1 | 0.0316
O=[N+]([O-])c1ccc(CNc2ncnc3c2ncn3[C@@H]2O[C@H](CO)C[C@H]2O)cc1 | 0.977
O=[N+]([O-])c1cc(Cl)ccc1CNc1ncnc2c1ncn2[C@@H]1O[C@H](CO)[C@@H](O)[C@H]1O | 46.8
CCCSc1nc(N)nc2c1ncn2[C@@H]1O[C@H](CO)[C@@H](O)[C@H]1O | 32.4
OC[C@H]1O[C@@H](n2cnc3c(CSc4ccccc4Cl)ncnc32)[C@H](O)[C@@H]1O | 1.78
COc1cccc(CNc2ncnc3c2ncn3[C@@H]2O[C@H](CO)[C@@H](O)[C@H]2O)c1 | 115
CSc1ncnc2c1ncn2C1CCCCO1 (configuration not stated) | 275
OC[C@H]1O[C@@H](n2cnc3c(CSc4ccc(F)cc4)ncnc32)[C@H](O)[C@@H]1O | 0.158
Nc1ccc(CNc2ncnc3c2ncn3[C@@H]2O[C@H](CO)[C@@H](O)[C@H]2O)cc1 | 4.17
OC[C@H]1O[C@@H](n2cnc3c(NCc4cccs4)ncnc32)[C@H](O)[C@@H]1O | 17.8
Cc1cccc(CSc2nc(N)nc3c2ncn3[C@@H]2O[C@H](CO)[C@@H](O)[C@H]2O)n1 | 11500
CC(C)CCNc1ncnc2[nH]ncc12 | 234
c1ccc(CCNc2ncnc3[nH]ncc23)cc1 | 100
Nc1nc(SCc2ccc(Br)cc2)c2ncn([C@@H]3O[C@H](CO)[C@@H](O)[C@H]3O)c2n1 | 0.813
OC[C@H]1O[C@@H](n2cnc3c(CSc4ccc(Cl)cc4Cl)ncnc32)[C@H](O)[C@@H]1O | 0.0776

SMILES | IC50 [µM]
CCCCn1cnc2c(SC)nc(N)nc21 | 219
Nc1nc(SCc2ccccc2Cl)c2ncn([C@@H]3O[C@H](CO)[C@@H](O)[C@H]3O)c2n1 | 13.5
Cc1ccc(CSc2ncnc3c2ncn3[C@@H]2O[C@H](CO)[C@@H](O)[C@H]2O)cc1 | 0.457
O=[N+]([O-])c1ccc(CNc2ncnc3c2ncn3[C@@H]2O[C@H](CCl)[C@@H](O)[C@H]2O)cc1 | 0.107
OC[C@H]1O[C@@H](n2cnc3c(CSc4ccccc4I)ncnc32)[C@H](O)[C@@H]1O | 0.282
CC(C)c1ccc(CSc2ncnc3c2ncn3[C@@H]2O[C@H](CO)[C@@H](O)[C@H]2O)cc1 | 4.79
Nc1nc(SCc2ccc([N+](=O)[O-])cc2)c2ncn([C@@H]3O[C@H](CO)[C@@H](O)[C@H]3O)c2n1 | 0.0214
O=[N+]([O-])c1cccc2c1CCN(c1ncnc3c1ncn3[C@@H]1O[C@H](CO)[C@@H](O)[C@H]1O)C2 | 3.02
O=[N+]([O-])c1cccc2c1CN(c1ncnc3c1ncn3[C@@H]1O[C@H](CO)[C@@H](O)[C@H]1O)CC2 | 3.63
O=[N+]([O-])c1ccc(CNc2ncnc3c2ncn3[C@H]2C[C@H](O)[C@@H](CO)O2)cc1 | 0.0158
Nc1ncnc2c1ncn2[C@@H]1O[C@H](COCCOCCNc2ncnc3c2ncn3[C@@H]2O[C@H](CO)[C@@H](O)[C@H]2O)[C@@H](O)[C@H]1O | 912
N#Cc1ccc(SCc2ncnc3c2ncn3[C@@H]2O[C@H](CO)[C@@H](O)[C@H]2O)cc1 | 0.0813
CCCn1cnc2c(SCc3ccccn3)nc(N)nc21 | 91.2
OC[C@H]1O[C@@H](n2cnc3c(SCC4CCCCC4)ncnc32)[C@H](O)[C@@H]1O | 1.55
OC[C@H]1O[C@@H](n2cnc3c(CSc4cccc(C(F)(F)F)c4)ncnc32)[C@H](O)[C@@H]1O | 0.331
COc1ccc(SCc2ncnc3c2ncn3[C@@H]2O[C@H](CO)[C@@H](O)[C@H]2O)cc1 | 0.617
CCC(C)Sc1nc(N)nc2c1ncn2[C@@H]1O[C@H](CO)[C@@H](O)[C@H]1O (some centres not stated) | 63.1
CC(=O)Nc1ccc(CNc2ncnc3c2ncn3[C@@H]2O[C@H](CO)[C@@H](O)[C@H]2O)cc1 | 0.182
COC(=O)c1ccc(SCc2ncnc3c2ncn3[C@@H]2O[C@H](CO)[C@@H](O)[C@H]2O)cc1 | 0.813
